Experimental data published in patent US12139520B2 (priority 2020, dated 2024).
Bridge positions count the residues as written; N and C are the ends. Square brackets hold non-standard residues; d marks the D form. Peptide text beside a SMILES is read from it. Hyp = O=C(O)[C@@H]1C[C@@H](O)CN1

Assays:
hAMY3 receptor = target: T1, hAMY3 receptor (Homo sapiens, UniProt O60896+P30988); assay: cAMP assay for in vitro receptor activation, hAMY3-R; type: cell-based; conditions: cAMP assay, hAMY3 receptor; read-out: hAMY3R EC50
T1 sequence (P30988 25-474): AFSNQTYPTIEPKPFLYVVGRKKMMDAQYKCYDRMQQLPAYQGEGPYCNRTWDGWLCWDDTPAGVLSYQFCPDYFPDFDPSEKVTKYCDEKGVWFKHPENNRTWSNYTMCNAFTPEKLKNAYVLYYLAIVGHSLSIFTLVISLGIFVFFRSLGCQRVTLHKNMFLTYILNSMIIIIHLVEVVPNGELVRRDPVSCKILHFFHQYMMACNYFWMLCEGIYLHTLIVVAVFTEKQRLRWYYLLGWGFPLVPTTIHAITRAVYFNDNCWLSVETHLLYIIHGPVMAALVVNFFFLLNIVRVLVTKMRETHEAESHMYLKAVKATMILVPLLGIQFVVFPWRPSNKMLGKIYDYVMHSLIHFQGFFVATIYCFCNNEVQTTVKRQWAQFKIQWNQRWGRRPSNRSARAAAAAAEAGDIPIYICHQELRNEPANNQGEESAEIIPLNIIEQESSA
T1 sequence (O60896 24-148 partner): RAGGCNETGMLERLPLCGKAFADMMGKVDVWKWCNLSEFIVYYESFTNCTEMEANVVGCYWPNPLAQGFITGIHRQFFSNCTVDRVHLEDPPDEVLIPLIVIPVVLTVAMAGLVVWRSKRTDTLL
Summary of the method: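 Stable hAMY3 cells; DPBS + 0.05% casein + 0.5 mM IBMX; graded compound doses, 30 min, RT; cAMP via HTRF Gs kit, TR-FRET read at 1 h.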

[1] = Physical stability of peptide analogues (Thioflavin T fibrillation); type: physicochemical; conditions: maximum ThT signal normalized between hAMY maximum and buffer background; 40° C., shaking, four days; pH 7 per table title
Summary of the method: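 Samples are stressed at 40 °C for four days, being shaken at 700 rpm before each 10-min fluorescence reading of 4 μM Thioflavin T. Buffers were pH 4 acetate or pH 7 phosphate. Reported values are smoothed maximum ThT signals as a percentage of the hAMY-to-background range.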

In the case of CC[C@H](C)[C@H](NC(=O)[C@H](CC(N)=O)NC(=O)[C@H](CO)NC(=O)[C@H](CCCNC(=N)N)NC(=O)[C@@H]1CCCN1C(=O)[C@H](C)NC(=O)[C@@H](NC(=O)[C@H](CC(N)=O)NC(=O)[C@H](CC(=O)O)NC(=O)[C@H](CCCCN)NC(=O)[C@H](CC(=O)O)NC(=O)[C@H](CCCCN)NC(=O)[C@H](CC(=O)O)NC(=O)[C@@H](NC(=O)[C@H](Cc1ccccc1)NC(=O)[C@H](CCC(N)=O)NC(=O)[C@H](Cc1ccc(O)cc1)NC(=O)[C@@H](NC(=O)[C@H](CCC(N)=O)NC(=O)[C@H](Cc1c[nH]cn1)NC(=O)[C@H](C)NC(=O)[C@H](CC(C)C)NC(=O)[C@H](Cc1c[nH]c2ccccc12)NC(=O)[C@H](CCC(N)=O)NC(=O)[C@@H](NC(=O)[C@@H](NC(=O)[C@@H]1CSSC[C@H](NC(=O)CN)C(=O)N[C@@H](CCCNC(=N)N)C(=O)N[C@@H]([C@@H](C)O)C(=O)NCC(=O)N[C@@H]([C@@H](C)O)C(=O)N1)[C@@H](C)O)C(C)C)[C@@H](C)CC)[C@@H](C)O)C(C)C)C(=O)NCC(=O)N1CCC[C@H]1C(=O)N[C@@H](CC(N)=O)C(=O)NCC(=O)N1C[C@H](O)C[C@H]1C(N)=O [compound 352] (H-GCRTGTCTVQWLAHQIYQFTDKDKDNVAPRSNIGPNG[Hyp]-NH2; disulfide 2-7; N-terminus assumed), the EC50 (hAMY3 receptor) is reported as 0.04 nM and the “Max ThT signal (%)” value [1] is reported as 25.800%.
With CC[C@H](C)[C@H](NC(=O)[C@H](CCC(N)=O)NC(=O)[C@H](Cc1c[nH]cn1)NC(=O)[C@H](C)NC(=O)[C@H](CC(C)C)NC(=O)[C@H](Cc1c[nH]c2ccccc12)NC(=O)[C@H](CCC(N)=O)NC(=O)[C@@H](NC(=O)[C@@H](NC(=O)[C@@H]1CSSC[C@H](NC(=O)CN)C(=O)N[C@@H](CCCNC(=N)N)C(=O)N[C@@H](Cc2ccccc2)C(=O)NCC(=O)N[C@@H]([C@@H](C)O)C(=O)N1)[C@@H](C)O)C(C)C)C(=O)N[C@@H](Cc1ccc(O)cc1)C(=O)N[C@@H](CCC(N)=O)C(=O)N[C@@H](Cc1ccccc1)C(=O)N[C@H](C(=O)N[C@@H](CC(=O)O)C(=O)N[C@@H](CCCCN)C(=O)N[C@@H](CC(=O)O)C(=O)N[C@@H](CCCCN)C(=O)N[C@@H](CC(=O)O)C(=O)N[C@@H](CC(N)=O)C(=O)N[C@H](C(=O)N[C@@H](C)C(=O)N1CCC[C@H]1C(=O)N[C@@H](CCCNC(=N)N)C(=O)N[C@@H](CO)C(=O)N[C@@H](CCCCN)C(=O)N[C@H](C(=O)NCC(=O)N1CCC[C@H]1C(=O)N[C@@H](CCC(N)=O)C(=O)NCC(=O)N1C[C@H](O)C[C@H]1C(N)=O)C(C)C)C(C)C)[C@@H](C)O [compound 353] (H-GCRFGTCTVQWLAHQIYQFTDKDKDNVAPRSKVGPQG[Hyp]-NH2; disulfide 2-7; N-terminus assumed) the EC50 (hAMY3 receptor) was 0.027 nM and the “Max ThT signal (%)” value [1] was 30.300%.
With CC[C@H](C)[C@H](NC(=O)[C@H](CCC(N)=O)NC(=O)[C@H](Cc1c[nH]cn1)NC(=O)[C@H](C)NC(=O)[C@H](CC(C)C)NC(=O)[C@H](CCCNC(=N)N)NC(=O)[C@H](CCC(N)=O)NC(=O)[C@@H](NC(=O)[C@@H](NC(=O)[C@@H]1CSSC[C@H](NC(=O)CN)C(=O)N[C@@H](CCCNC(=N)N)C(=O)N[C@@H](Cc2ccccc2)C(=O)NCC(=O)N[C@@H]([C@@H](C)O)C(=O)N1)[C@@H](C)O)C(C)C)C(=O)N[C@@H](Cc1ccc(O)cc1)C(=O)N[C@@H](CCC(N)=O)C(=O)N[C@@H](Cc1ccccc1)C(=O)N[C@H](C(=O)N[C@@H](CC(=O)O)C(=O)N[C@@H](CCCCN)C(=O)N[C@@H](CC(=O)O)C(=O)N[C@@H](CCCCN)C(=O)N[C@@H](CC(=O)O)C(=O)N[C@@H](CC(N)=O)C(=O)N[C@H](C(=O)N[C@@H](C)C(=O)N1CCC[C@H]1C(=O)N[C@@H](CCCNC(=N)N)C(=O)N[C@H](C(=O)N[C@@H](CC(N)=O)C(=O)N[C@H](C(=O)NCC(=O)N1CCC[C@H]1C(=O)N[C@@H](CCC(N)=O)C(=O)NCC(=O)N[C@@H](Cc1ccc(O)cc1)C(N)=O)C(C)C)[C@@H](C)O)C(C)C)[C@@H](C)O [compound 362] (H-GCRFGTCTVQRLAHQIYQFTDKDKDNVAPRTNVGPQGY-NH2; disulfide 2-7) the EC50 (hAMY3 receptor) was 0.007 nM and the “Max ThT signal (%)” value [1] was 8.900%.
With CC[C@H](C)[C@H](NC(=O)[C@H](CCC(N)=O)NC(=O)[C@H](Cc1c[nH]cn1)NC(=O)[C@H](C)NC(=O)[C@H](CC(C)C)NC(=O)[C@H](CCCNC(=N)N)NC(=O)[C@H](CCC(N)=O)NC(=O)[C@@H](NC(=O)[C@@H](NC(=O)[C@@H]1CSSC[C@H](NC(=O)CN)C(=O)N[C@@H](CCCNC(=N)N)C(=O)N[C@@H](Cc2ccccc2)C(=O)NCC(=O)N[C@@H]([C@@H](C)O)C(=O)N1)[C@@H](C)O)C(C)C)C(=O)N[C@@H](Cc1ccc(O)cc1)C(=O)N[C@@H](CCC(N)=O)C(=O)N[C@@H](Cc1ccccc1)C(=O)N[C@H](C(=O)N[C@@H](CC(=O)O)C(=O)N[C@@H](CCCCN)C(=O)N[C@@H](CC(=O)O)C(=O)N[C@@H](CCCCN)C(=O)N[C@@H](CC(=O)O)C(=O)N[C@@H](CC(N)=O)C(=O)N[C@H](C(=O)N[C@@H](C)C(=O)N1CCC[C@H]1C(=O)N[C@@H](CCCNC(=N)N)C(=O)N[C@H](C(=O)N[C@@H](CC(N)=O)C(=O)N[C@H](C(=O)N[C@@H](CO)C(=O)N1CCC[C@H]1C(=O)N[C@@H](CC(N)=O)C(=O)NCC(=O)N[C@@H](Cc1ccc(O)cc1)C(N)=O)[C@@H](C)CC)[C@@H](C)O)C(C)C)[C@@H](C)O [compound 366] (H-GCRFGTCTVQRLAHQIYQFTDKDKDNVAPRTNISPNGY-NH2; disulfide 2-7; N-terminus assumed) the EC50 (hAMY3 receptor) was 0.013 nM and the “Max ThT signal (%)” value [1] was 3.300%.
In the case of CC[C@H](C)[C@H](NC(=O)[C@H](CCC(N)=O)NC(=O)[C@H](Cc1c[nH]cn1)NC(=O)[C@H](C)NC(=O)[C@H](CC(C)C)NC(=O)[C@H](CCCNC(=N)N)NC(=O)[C@H](CCC(N)=O)NC(=O)[C@@H](NC(=O)[C@@H](NC(=O)[C@@H]1CSSC[C@H](NC(=O)CN)C(=O)N[C@@H](CCCNC(=N)N)C(=O)N[C@@H](Cc2ccccc2)C(=O)NCC(=O)N[C@@H]([C@@H](C)O)C(=O)N1)[C@@H](C)O)C(C)C)C(=O)N[C@@H](Cc1ccc(O)cc1)C(=O)N[C@@H](CCC(N)=O)C(=O)N[C@@H](Cc1ccccc1)C(=O)N[C@H](C(=O)N[C@@H](CC(=O)O)C(=O)N[C@@H](CCCCN)C(=O)N[C@@H](CC(=O)O)C(=O)N[C@@H](CCCCN)C(=O)N[C@@H](CC(=O)O)C(=O)N[C@@H](CC(N)=O)C(=O)N[C@H](C(=O)N[C@@H](C)C(=O)N1CCC[C@H]1C(=O)N[C@@H](CCCNC(=N)N)C(=O)N[C@@H](CO)C(=O)N[C@@H](CC(N)=O)C(=O)N[C@H](C(=O)NCC(=O)N1CCC[C@H]1C(=O)N[C@@H](CC(N)=O)C(=O)NCC(=O)N[C@@H](Cc1ccc(O)cc1)C(N)=O)C(C)C)C(C)C)[C@@H](C)O [compound 373] (H-GCRFGTCTVQRLAHQIYQFTDKDKDNVAPRSNVGPNGY-NH2; disulfide 2-7; N-terminus assumed), the EC50 (hAMY3 receptor) is reported as 0.02 nM and the “Max ThT signal (%)” value [1] is reported as 18.000%.
In the case of CC[C@H](C)[C@H](NC(=O)[C@H](CCC(N)=O)NC(=O)[C@H](Cc1c[nH]cn1)NC(=O)[C@H](C)NC(=O)[C@H](CC(C)C)NC(=O)[C@H](CCCNC(=N)N)NC(=O)[C@H](CCC(N)=O)NC(=O)[C@@H](NC(=O)[C@@H](NC(=O)[C@@H]1CSSC[C@H](NC(=O)CN)C(=O)N[C@@H](CCCNC(=N)N)C(=O)N[C@@H](Cc2ccccc2)C(=O)NCC(=O)N[C@@H]([C@@H](C)O)C(=O)N1)[C@@H](C)O)C(C)C)C(=O)N[C@@H](Cc1ccc(O)cc1)C(=O)N[C@@H](CCC(N)=O)C(=O)N[C@@H](Cc1ccccc1)C(=O)N[C@H](C(=O)N[C@@H](CC(=O)O)C(=O)N[C@@H](CCCCN)C(=O)N[C@@H](CC(=O)O)C(=O)N[C@@H](CCCCN)C(=O)N[C@@H](CC(=O)O)C(=O)N[C@@H](CC(N)=O)C(=O)N[C@H](C(=O)N[C@@H](C)C(=O)N1CCC[C@H]1C(=O)N[C@@H](CCCNC(=N)N)C(=O)N[C@H](C(=O)N[C@@H](CCCCN)C(=O)N[C@H](C(=O)N[C@@H](CO)C(=O)N1CCC[C@H]1C(=O)N[C@@H](CC(N)=O)C(=O)NCC(=O)N[C@@H](Cc1ccc(O)cc1)C(N)=O)C(C)C)[C@@H](C)O)C(C)C)[C@@H](C)O [compound 385] (H-GCRFGTCTVQRLAHQIYQFTDKDKDNVAPRTKVSPNGY-NH2; disulfide 2-7; N-terminus assumed), the EC50 (hAMY3 receptor) is reported as 0.036 nM and the “Max ThT signal (%)” value [1] is reported as 8.800%.
